# Molecular target: T1, hROMK (hKir1.1) (Homo sapiens, UniProt P48048)
# T1 construct: expressed in transfected cells
# T1 sequence (P48048 1-391): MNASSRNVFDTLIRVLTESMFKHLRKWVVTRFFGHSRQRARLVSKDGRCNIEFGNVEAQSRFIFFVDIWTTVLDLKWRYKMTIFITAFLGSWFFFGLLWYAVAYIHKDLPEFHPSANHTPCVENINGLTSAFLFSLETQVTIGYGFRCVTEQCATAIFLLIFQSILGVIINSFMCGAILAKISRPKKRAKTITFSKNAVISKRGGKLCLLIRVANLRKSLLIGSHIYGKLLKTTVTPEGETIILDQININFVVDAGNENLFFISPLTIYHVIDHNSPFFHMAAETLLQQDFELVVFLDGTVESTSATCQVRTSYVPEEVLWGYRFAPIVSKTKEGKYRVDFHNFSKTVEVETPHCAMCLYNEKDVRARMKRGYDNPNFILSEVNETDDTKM
# Experiment: Thallium Flux Assay (ROMK channel functional thallium flux, FLIPR-Tetra)
# Assay type: cell-based
# Conditions: HEK293 cells stably expressing hROMK (hKir1.1); 30 min compound incubation
# In short: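 HEK293 cells stably expressing hKir1.1, loaded with FluxOR dye for 90 min, then preincubated with compound for 30 min at ambient temperature with 0.3 mM ouabain and probenecid. Stimulated with 3 mM thallium/0.3 mM potassium (final); fluorescence read ~10 min. Normalized to 3 μM reference ROMK inhibitor; IC50 from inhibition of flux.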
row,SMILES,IC50 [nM]
1,"CC1=C(N2CCC3(CCN(CCc4nnc(-n5cnnn5)cc4C)CC3F)C2=O)COC1=O (single isomer, unassigned) [Example 268, 6-fluoro-2-(4-methyl-5-oxo-2,5-dihydrofuran-3-yl)-8-{2-[4-methyl-6-(1H-tetrazol-1-yl)pyridazin-3-yl]ethyl}-2,8-diazaspiro[4.5]decan-1-one]",10
2,"CC1=C(N2CCC3(CCN(C[C@@H](O)c4ccc(-n5cnnn5)nn4)CC3)C2=O)COC1=O [Example 33, 8-{(2R)-2-hydroxy-2-[6-(1H-tetrazol-1-yl)pyridazin-3-yl]ethyl}-2-(4-methyl-5-oxo-2,5-dihydrofuran-3-yl)-1-oxo-2-aza-8-azoniaspiro[4.5]decane]",20
3,"CC1=C(N2C=CC3(CCN(C[C@@H](O)c4nnc(-n5cnnn5)cc4C)CC3)C2=O)COC1=O [Example 153, 8-{(2R)-2-hydroxy-2-[4-methyl-6-(1H-tetrazol-1-yl)pyridazin-3-yl]ethyl}-2-(4-methyl-5-oxo-2,5-dihydrofuran-3-yl)-1-oxo-2-aza-8-azoniaspiro[4.5]dec-3-ene]",40
4,"CC1=C(N2CCC3(CCN(C[C@H](O)c4cccc(-n5cnnn5)n4)CC3)C2=O)COC1=O [Example 73, 8-{(2S)-2-hydroxy-2-[6-(1H-tetrazol-1-yl)pyridin-2-yl]ethyl}-2-(4-methyl-5-oxo-2,5-dihydrofuran-3-yl)-1-oxo-2-aza-8-azoniaspiro[4.5]decane]",170
5,"CC1=C(N2CCC3(CC4CCC(C3)N4C[C@@H](O)c3ccc(-n4cnnn4)cn3)C2=O)COC1=O (stereo partly drawn) [Example 46, (1R,5R)-8-{(2R)-2-hydroxy-2-[5-(1H-tetrazol-1-yl)pyridin-2-yl]ethyl}-1′-(4-methyl-5-oxo-2,5-dihydrofuran-3-yl)-2′-oxospiro[8-azoniabicyclo[3.2.1]octane-3,3′-pyrrolidine]]",20
6,"Cc1nc(-n2cnnn2)ccc1[C@@H](O)CN1C2CCC1CC1(CCN(C3=CC(=O)OC3)C1=O)C2 (stereo partly drawn) [Example 43, (1R,5R)-8-{(2R)-2-hydroxy-2-[2-methyl-6-(1H-tetrazol-1-yl)pyridin-3-yl]ethyl}-2′-oxo-1′-(5-oxo-2,5-dihydrofuran-3-yl)spiro[8-azoniabicyclo[3.2.1]octane-3,3′-pyrrolidine]]",10
7,"COc1cc(-n2cnnn2)ccc1[C@@H](O)CN1CCC2(CC1)CCN(C1=C(C)C(=O)OC1)C2=O [Example 119, 8-{(2R)-2-hydroxy-2-[2-methoxy-4-(1H-tetrazol-1-yl)phenyl]ethyl}-2-(4-methyl-5-oxo-2,5-dihydrofuran-3-yl)-1-oxo-2-aza-8-azoniaspiro[4.5]decane]",10
8,"CC1=C(N2C(=O)C3(CCN(C[C@H](O)c4ccc(-n5cnnn5)nc4C)CC3)CC2C)COC1=O (mixture of isomers) [Example 57, 8-{(2R)-2-hydroxy-2-[2-methyl-6-(1H-tetrazol-1-yl)pyridin-3-yl]ethyl}-3-methyl-2-(4-methyl-5-oxo-2,5-dihydrofuran-3-yl)-1-oxo-2-aza-8-azoniaspiro[4.5]decane]",20
9,"O=C1C=C(N2C(=O)C3(CCN(C[C@H](O)c4ccc(-n5cnnn5)nn4)CC3)CC2C2CC2)CO1 (mixture of isomers) [Example 211, 3-cyclopropyl-8-{(2S)-2-hydroxy-2-[6-(1H-tetrazol-1-yl)pyridazin-3-yl]ethyl}-2-(5-oxo-2,5-dihydrofuran-3-yl)-2,8-diazaspiro[4.5]decan-1-one]",40
10,"CCC1CC2(CCN(C[C@H](O)c3ccc(-n4cnnn4)nc3)CC2)C(=O)N1C1=CC(=O)OC1 (mixture of isomers) [Example 219, 3-ethyl-8-{(2R)-2-hydroxy-2-[6-(1H-tetrazol-1-yl)pyridin-3-yl]ethyl}-2-(5-oxo-2,5-dihydrofuran-3-yl)-2,8-diazaspiro[4.5]decan-1-one]",10
11,"CC1=C(N2CCC3(CCN(C[C@@H](O)c4cnc(-n5cnnn5)c(C)n4)CC3)C2=O)COC1=O [Example 88, 8-{(2R)-2-hydroxy-2-[6-methyl-5-(1H-tetrazol-1-yl)pyrazin-2-yl]ethyl}-2-(4-methyl-5-oxo-2,5-dihydrofuran-3-yl)-1-oxo-2-aza-8-azoniaspiro[4.5]decane]",40
12,"COC1CN(C[C@@H](O)c2cnc(-n3cnnn3)cn2)CCC12CCN(C1=C(C)C(=O)OC1)C2=O (single isomer, unassigned) [Example 179]",330
13,"CCc1nc(-n2cnnn2)cnc1CCN1CCC2(CC1)C[C@H](C)N(C1=CC(=O)OC1)C2=O [Example 271, (S)-8-(2-(3-ethyl-5-(1H-tetrazol-1-yl)pyrazin-2-yl)ethyl)-3-methyl-2-(5-oxo-2,5-dihydrofuran-3-yl)-2,8-diazaspiro[4.5]decan-1-one]",5
14,"C[C@H]1CC2(CCN(C[C@H](O)c3ccc(-n4cnnn4)nc3)CC2)C(=O)N1C1=CC(=O)OC1 [Example 81, (3S)-8-{(2R)-2-hydroxy-2-[6-(1H-tetrazol-1-yl)pyridin-3-yl]ethyl}-3-methyl-1-oxo-2-(5-oxo-2,5-dihydrofuran-3-yl)-2-aza-8-azoniaspiro[4.5]decane]",10
15,"CC1CC2(CCN(C(C)(C)C(O)c3cnc(-n4cnnn4)cn3)CC2)C(=O)N1C1=CC(=O)OC1 (single isomer, unassigned) [Example 304, 8-(1-(5-(1H-tetrazol-1-yl)pyrazin-2-yl)-1-hydroxy-2-methylpropan-2-yl)-3-methyl-2-(5-oxo-2,5-dihydrofuran-3-yl)-2,8-diazaspiro[4.5]decan-1-one]",910
16,"COC1CN(C2=C(C)C(=O)OC2)C(=O)C12CC1CCC(C2)N1C[C@H](O)c1ccc(-n2cnnn2)nc1 (single isomer, unassigned) [Example 108]",40
17,"CC1=C(N2CCC3(CCN(C[C@H](O)c4cnc(-n5cnnn5)cc4C(F)F)CC3)C2=O)COC1=O (stereo in doubt) [Example 147, 8-{2-[4-(difluoromethyl)-6-(1H-tetrazol-1-yl)pyridin-3-yl]-2-hydroxyethyl}-2-(4-methyl-5-oxo-2,5-dihydrofuran-3-yl)-2,8-diazaspiro[4.5]decan-1-one]",40
18,"CC1=C(N2CCC3(CCN(C[C@H](O)c4ncc(-n5cnnn5)cn4)CC3)C2=O)COC1=O [Example 40, 8-{(2S)-2-hydroxy-2-[5-(1H-tetrazol-1-yl)pyrimidin-2-yl]ethyl}-2-(4-methyl-5-oxo-2,5-dihydrofuran-3-yl)-1-oxo-2-aza-8-azoniaspiro[4.5]decane]",200
19,"O=C1C=C(N2C=CC3(CCN(C[C@H](O)c4ccc(-n5cnnn5)nc4)CC3)C2=O)CO1 [Example 151, 8-{(2R)-2-hydroxy-2-[6-(1H-tetrazol-1-yl)pyridin-3-yl]ethyl}-1-oxo-2-(5-oxo-2,5-dihydrofuran-3-yl)-2-aza-8-azoniaspiro[4.5]dec-3-ene]",30
20,"O=C1C=C(N2C(=O)C3(CCN(C[C@H](O)c4ccc(-n5cnnn5)nc4)CC3)CC2C2CC2)CO1 (mixture of isomers) [Example 215, 3-cyclopropyl-8-{(2R)-2-hydroxy-2-[6-(1H-tetrazol-1-yl)pyridin-3-yl]ethyl}-2-(5-oxo-2,5-dihydrofuran-3-yl)-2,8-diazaspiro[4.5]decan-1-one]",30
21,"O=C1C=C(N2C=CC3(CCN(C[C@H](O)c4ccc(-n5cnnn5)nn4)CC3)C2=O)CO1 [Example 201, 8-{(2S)-2-hydroxy-2-[6-(1H-tetrazol-1-yl)pyridazin-3-yl]ethyl}-1-oxo-2-(5-oxo-2,5-dihydrofuran-3-yl)-2-aza-8-azoniaspiro[4.5]dec-3-ene]",120
22,"CC1=C(N2CCC3(CCN(C[C@@H](O)c4nnc(-n5cnnn5)cc4C)CC3F)C2=O)COC1=O (single isomer, unassigned) [Example 199]",20
23,"CC1=C(N2CCC3(CCN(C[C@H](O)c4ccc(-n5cnnn5)nn4)CC3F)C2=O)COC1=O (single isomer, unassigned) [Example 183]",80
24,"COC1CN(C2=C(C)C(=O)OC2)C(=O)C12CC1CCC(C2)N1C[C@H](O)c1ccc(-n2cnnn2)nc1 (single isomer, unassigned) [Example 159]",40
25,"O=C1C=C(N2CCC3(CCN(C[C@H](O)c4ccc(-n5cnnn5)cc4F)CC3)C2=O)CO1 [Example 13, 8-{(2R)-2-[2-fluoro-4-(1H-tetrazol-1-yl)phenyl]-2-hydroxyethyl}-1-oxo-2-(5-oxo-2,5-dihydrofuran-3-yl)-2-aza-8-azoniaspiro[4.5]decane]",20
26,"CC1=C(N2CCC3(CCN(C[C@@H](C)c4ccc(-n5cnnn5)nn4)CC3)C2=O)COC1=O (single isomer, unassigned) [Example 291]",80
27,"COC(=O)c1cc(-n2cnnn2)ncc1CCN1CCC2(CC1)CCN(C1=C(C)C(=O)OC1)C2=O [Example 254, methyl 5-(2-(2-(4-methyl-5-oxo-2,5-dihydrofuran-3-yl)-1-oxo-2,8-diazaspiro[4.5]decan-8-yl)ethyl)-2-(1H-tetrazol-1-yl)isonicotinate]",30
28,"CC1CC2(CC3CCC(C2)N3C[C@H](O)c2cnc(-n3cnnn3)cn2)C(=O)N1C1=CC(=O)OC1 (single isomer, unassigned) [Example 89]",30
29,"Cc1cc(-n2cnnn2)ccc1[C@@H](O)CN1CCC2(CC1)CCN(C1=CC(=O)OC1)C2=O [Example 11, 8-{(2R)-2-hydroxy-2-[2-methyl-4-(1H-tetrazol-1-yl)phenyl]ethyl}-1-oxo-2-(5-oxo-2,5-dihydrofuran-3-yl)-2-aza-8-azoniaspiro[4.5]decane]",20
